Test results from patent publication US20240327413A1, “NLRP3 MODULATORS” (Zomagen Biosciences Ltd, priority 2021, published 2024).

tested on: IL-1b; assay: Human Monocyte IL-1b Assay (fresh human whole blood, LPS priming, ATP stimulation, ELISA); assay type: cell-based; settings: Homo sapiens, read-out: IL-1b (IC50)
Method: Serially diluted testing compounds were incubated with […] of fresh human whole blood for 0.5 hours. Cells were primed with 100 ng/mL lipopolysaccharide (LPS) for 3.5 hours at 37° C. followed by stimulation with 5 mM ATP for an additional 45 minutes. The concentration of IL-1b concentration in the supernatant was determined with commercially available ELISA kits. Negative controls are wells without stimulation, while positive controls are wells with stimulation but only DMSO without compounds added. After background subtraction, compound treatment wells were then normalized to the positive controls for IC50 calculations.

Molecule `Cc1ccc(-c2nnc(OC3CCCN(C)C3)c3ccccc23)c(O)c1` (centres unmarked) [Compound 23, 5-methyl-2-(4-((1-methylpiperidin-3-yl)oxy)phthalazin-1-yl)phenol] has an IC50 of 300 to 3000 nM.

same assay, conditions: fresh human whole blood, 100 ng/mL LPS 3.5 hours, then 5 mM ATP 45 minutes, IL-1b in supernatant by ELISA, read-out: IL-1b (IC50)

`Cc1cc(C)c(-c2nnc(N[C@@H]3CCCN(C)C3)c3ccccc23)c(O)c1` [Compound 1, 3,5-dimethyl-2-(4-(((R)-1-methylpiperidin-3-yl)amino)phthalazin-1-yl)phenol] and `Cc1cc(O)c(-c2nnc(N[C@@H]3CCCN(C)C3)c3ccccc23)cc1F` [Compound 5, (R)-4-fluoro-5-methyl-2-(4-((1-methylpiperidin-3-yl)amino)phthalazin-1-yl)phenol] cannot be ordered by IC50: less than 300 nM for the first, less than 300 nM for the second.

First: Cc1ccc(-c2nnc(N[C@@H]3CCCN(C)C3)c3ccccc23)c(O)c1 [Compound 2, (R)-5-methyl-2-(4-((1-methylpiperidin-3-yl)amino)phthalazin-1-yl)phenol]
Second: CCOC(=O)c1cc(C)ccc1-c1nnc(N[C@@H]2CCCN(C)C2)c2ccccc12 [Compound 6, ethyl (R)-5-methyl-2-(4-((1-methylpiperidin-3-yl)amino)phthalazin-1-yl)benzoate]
The IC50 of the first is lower: less than 300 nM for the first, 3000 to 10000 nM for the second. The first is the more potent here.

First: CN1CCC[C@@H](Nc2nnc(-c3ccc4c(c3O)CCC4)c3ccccc23)C1 [Compound 4, (R)-5-(4-((1-methylpiperidin-3-yl)amino)phthalazin-1-yl)-2,3-dihydro-1H-inden-4-ol]
Second: CN1CCC[C@@H](Nc2nnc(-c3ccc4c(c3O)CCC4)c3cccn23)C1 [Compound 27, (R)-5-(4-((1-methylpiperidin-3-yl)amino)pyrrolo[1,2-d][1,2,4]triazin-1-yl)-2,3-dihydro-1H-inden-4-ol]
The IC50 of the first is lower: less than 300 nM for the first, 300 to 3000 nM for the second.

`Cc1cc(C)c(-c2nnc(N[C@@H]3CCCN(C)C3)c3c2CCC3)c(O)c1` [Compound 7, 3,5-dimethyl-2-(4-(((R)-1-methylpiperidin-3-yl)amino)-6,7-dihydro-5H-cyclopenta[d]pyridazin-1-yl)phenol] and `Cc1ccc(-c2nnc(N[C@@H]3CCCN(C)C3)c3c2CCC3)c(O)c1` [Compound 8, (R)-5-methyl-2-(4-((1-methylpiperidin-3-yl)amino)-6,7-dihydro-5H-cyclopenta[d]pyridazin-1-yl)phenol] cannot be ordered by IC50: less than 300 nM for the first, less than 300 nM for the second.

`Cc1ccc(-c2nnc(N[C@@H]3CCCN(C)C3)c3c2CCC3)c(O)c1F` [Compound 10, (R)-2-fluoro-3-methyl-6-(4-((1-methylpiperidin-3-yl)amino)-6,7-dihydro-5H-cyclopenta[d]pyridazin-1-yl)phenol] and `Cc1ccc(-c2nnc(N[C@@H]3CCCN(C)C3)c3c2CCCC3)c(O)c1` [Compound 11, (R)-5-methyl-2-(4-((1-methylpiperidin-3-yl)amino)-5,6,7,8-tetrahydrophthalazin-1-yl)phenol] cannot be ordered by IC50: less than 300 nM for the first, less than 300 nM for the second.

First: Cc1ccc(-c2nnc(N(C)[C@@H]3CCCN(C)C3)c3ccccc23)c(O)c1 [Compound 12, (R)-5-methyl-2-(4-(methyl(1-methylpiperidin-3-yl)amino)phthalazin-1-yl)phenol]
Second: Cc1ccc(-c2nnc(N[C@@H]3CCCN(C)C3)c3cscc23)c(O)c1 [Compound 21, (R)-5-methyl-2-(4-((1-methylpiperidin-3-yl)amino)thieno[3,4-d]pyridazin-1-yl)phenol]
The IC50 of the first is higher: 300 to 3000 nM for the first, less than 300 nM for the second.

`Cc1cc(C)c(-c2nnc(N[C@@H]3CCCN(C)C3)n3cccc23)c(O)c1` [Compound 13, (R)-3,5-dimethyl-2-(4-((1-methylpiperidin-3-yl)amino)pyrrolo[1,2-d][1,2,4]triazin-1-yl)phenol] and `Cc1cc(O)c(-c2nnc(N[C@@H]3CCCN(C)C3)n3cccc23)c(F)c1` [Compound 14, (R)-3-fluoro-5-methyl-2-(4-((1-methylpiperidin-3-yl)amino)pyrrolo[1,2-d][1,2,4]triazin-1-yl)phenol] cannot be ordered by IC50: less than 300 nM for the first, less than 300 nM for the second.

`CN1CCC[C@@H](Nc2nnc(-c3ccc(C(F)(F)F)cc3O)c3ccsc23)C1` [Compound 19, (R)-2-(7-((1-methylpiperidin-3-yl)amino)thieno[2,3-d]pyridazin-4-yl)-5-(trifluoromethyl)phenol] and `CN1CCC[C@@H](Nc2nnc(-c3ccc(C(F)(F)F)cc3O)c3sccc23)C1` [Compound 20, (R)-2-(4-((1-methylpiperidin-3-yl)amino)thieno[2,3-d]pyridazin-7-yl)-5-(trifluoromethyl)phenol] cannot be ordered by IC50: less than 300 nM for the first, less than 300 nM for the second.

`CN1CCC[C@@H](Nc2nnc(-c3ccc(C(F)(F)F)cc3O)c3cscc23)C1` [Compound 22, (R)-2-(4-((1-methylpiperidin-3-yl)amino)thieno[3,4-d]pyridazin-1-yl)-5-(trifluoromethyl)phenol] and `Cc1ccc(-c2nnc(N[C@@H]3CCCN(C)C3)n3cccc23)c(O)c1` [Compound 24, (R)-5-methyl-2-(4-((1-methylpiperidin-3-yl)amino)pyrrolo[1,2-d][1,2,4]triazin-1-yl)phenol] cannot be ordered by IC50: less than 300 nM for the first, less than 300 nM for the second.

`Cc1cc(O)c(-c2nnc(N[C@@H]3CCCN(C)C3)n3cccc23)cc1F` [Compound 26, (R)-4-fluoro-5-methyl-2-(4-((1-methylpiperidin-3-yl)amino)pyrrolo[1,2-d][1,2,4]triazin-1-yl)phenol] gave an IC50 of 300 to 3000 nM.
